Measured values as given in patent publication US20070027175A1, “Antineoplastic activities of ellipticine and its derivatives” (priority 2005, published 2007).

Key:
U266 cells [1] = test: MTT dose response to anti-myeloma agents, U266; assay type: cell-based, human; conditions: 24 and 48 hours
Experimental: FIGS. 12A-12B show dose response of myeloma cells to common anti-myeloma agents used in clinics. U266 was one of 4 myeloma cell lines exposed to a panel of anti-myeloma agents in 2-fold titration ([…]). MTT assays were performed to assess cell proliferation inhibition for 24 hours (FIG. 12A) and 48 hours (FIG. 12B). […] Error bars indicate standard deviation.
Myeloma cells were suspended in fresh medium at […] and seeded into 96-well plates in 50-μl aliquots (10,000 cells/well). After treating cells in each well with the appropriate compound (50-μl aliquots of 2× stock solution) and medium control, the methylthiazolyldiphenyl-tetrazolium bromide (MTT) assay kit (Promega, Madison, Wis.) was used to determine cell proliferation, according to manufacturer's instructions. Briefly, dye solution was added to each well (15 μl/well) and incubated for 4 hours at 37° C. and 5% CO2; 100 μl of the solubilization solution/stop mix was then added. The plates were read at 570 nm in a plate reader, and the A570 nm values were corrected by A650 nm. All experiments were conducted in triplicate.
In vitro comparison of EPED3 to ellipticine and four anti-myeloma agents commonly used in clinical treatment regimens was carried out with four myeloma cell lines (JJN3, L363, OCI-MY5, and U266). EPED3, ellipticine, Dox, dexamethasome, VP-16-213, and Velcade were applied in a two-fold dilution series ranging from 0.1 to 6.4 μM. Cell proliferation was assessed using MTT assays 24 and 48 hours after initiating treatments.

U266 cells [2] = test: Flow cytometry cell cycle arrest (DNA-Prep); assay type: cell-based, human; conditions: 12 hours; EPED3 2 μM, Velcade 0.5 μM
Experimental: FIGS. 14A-14L show flowcytometry analyses of cell viability and cell cycle arrest under EPED3 and Velcade treatments. U266 cells were co-cultured without contact with human fetal bone mesenchymal cells. Cells were untreated (Control; FIGS. 14A, 14D, 14G, 14J) or exposed to […] (FIGS. 14B, 14E, 14H, 14K) or […] (FIGS. 14C, 14F, 14I, 14L) for 12 hours and then harvested. Pan-caspase inhibitor Z-VAD-FMK ([…]) was also added to co-cultures (FIGS. 14D-14F and FIGS. 14J-14L) to block caspase-dependent apoptosis and then analyzed for cell cycling arrest. Percent cells in G0+G1 and G2+M phases were measured by the peaks of DNA helix and are gated with each graph (FIGS. 14A-14F). Percent cells with fragmented DNA are indicated as c % in each graph. Cells were also analyzed for apoptotic status (FIGS. 14G-14L) using Coulter Annexin-V FITC/7-AAD kit. Untreated cells (Control; FIGS. 14G and 14J) were maintained at high viability (90%). Early apoptotic cells were gated at G4, and necrotic cells were gated at G2; percent cells in each population are indicated with each graph. The arrows indicate percent viable cells ingested EPED3, whose fluorescent property was captured at channel FL4 (FIGS. 14H, 14K).
Cell cycle arrest was measured using DNA-Prep Coulter Reagents kit (Beckman Coulter, Inc., Miami, Fla.). Myeloma cells were harvested from co-culture inserts and washed in phosphate buffered saline (PBS); 5×10^5 cells were stained according to the manufacturer's instructions. Samples were analyzed using EPICS XL-MCL flowcytometer equipped with EXPO32 ADC software (Beckman Coulter, Inc.).
To investigate the effects of EPED3 on apoptosis and cell cycle arrest of myeloma cells, U266 cells were exposed to EPED3 (2 μM) or Velcade (0.5 μM) in co-culture without direct contact with fetal human bone mesenchymal cells. Twelve hours after treatment, cells were harvested for using flow cytometry to detect ongoing apoptosis and cell cycle arrest.
The cell cycle arrest analysis was simultaneously performed to examine DNA helix in U266 cells at 12 hours. […] Furthermore, 7.2% of the EPED3-treated population was in G2+M phase as opposed to 25.4% of the control and 18.9% of Velcade-treated populations in the G2+M phase (FIG. 14A-14C).

U266 cells [3] = assay type: cell-based, human; conditions: for disruption of mitochondria (MitoTracker Red CMXRos): 6 hours, EPED3 2 mM, Velcade 0.5 mM
Excerpt: FIGS. 15A-15C show fluorescent images of EPED3 endoplasmic distribution and induction of apoptosis, which was also detected by Western Blot. […] For analysis by fluorescence microscopy, nuclei were stained with DAPI (blue), mitochondria with MitoTracker Red CMXRos (red), and cytochrome c with FITC-conjugated secondary antibodies (green); EPED3 is excited by ultraviolet light (wavelength<500 nm) and was visualized as gold.
The appearance of large cytoplasmic vacuoles (arrows) and diminished mitochondria in cells treated with EPED3 indicate ongoing apoptosis. […] Cytochrome c disassociation with mitochondria also indicates initiation of the intrinsic apoptotic pathway. […] Protein extracts ([…]) were analyzed by Western blotting, using goat anti-human Caspase-3, -8, and -9 polyclonal antibodies. […] In contrast, both EPED3 and Velcade treatments initiated the intrinsic pathway, which releases cytochrome c to induce rapid cleavage of Caspase-9 into its activated form. The consequent Caspase-3 activation indicates activity of the intracellular proteolytic cascade. Abbreviations: C=Medium control, E=EPED3, V=Velcade.
Myeloma cells were co-cultured with human fetal bone mesenchymal cells in the TC inserts. The cells were treated with individual antimyeloma agents at desired concentrations. An aliquot containing 10^6 cells was transferred to 24-well plate and mixed with MitoTracker Red CMXRos (Invitrogen) at 50 nM final concentration. After a 15-minute incubation, cells were collected and washed with PBS and resuspended at 5×10^5 cells/ml for slide adhesion by the Cytospinning method. […]
Autofluorescence of EPED3 was used to visually examine its effects on myeloma cells. […] Cells that ingested EPED3 were, therefore, discernible by the characteristic golden light emitted under fluorescence microscopy. […]
To further investigate effects of EPED3 on mitochondrial integrity and cytochrome c, treated U266 cells were immunohistochemically analyzed.

[4] = test system: myeloma cell lines chronically exposed to Velcade; test: Myeloma cell lines with acquired Velcade tolerance; assay type: cell-based

| Compound | concentration of efficient killing of U266 cells (U266 cells [1]; without co-culture, MTT) | population in G0+G1 phase (U266 cells [2]) [%] | population in G2+M phase (U266 cells [2]) [%] | disruption of mitochondria (MitoTracker Red CMXRos) (U266 cells [3]) | tolerance level after chronic exposure ([4]; in vitro chronic exposure to Velcade, several myeloma cell lines) [nM] | concentration with better efficacy on reduction of cell metabolic activity (U266 cells [1]; U266) [µM] | concentration at which cell proliferation stopped (U266 cells [1]; U266, MTT) [µM] | cell uptake and distribution (autofluorescence) (U266 cells [3]) | cross-tolerance of Velcade-tolerant cells ([4]; data not shown) |
| --- | --- | --- | --- | --- | --- | --- | --- | --- | --- |
| CC(C)C[C@H](NC(=O)[C@H](Cc1ccccc1)NC(=O)c1cnccn1)B(O)O [Velcade, bortezomib, reference compound] | less than 0.1 μM | 59.8 | 18.9 | mitochondrial disruption was not seen | > 5 | – | – | – | – |
| Cc1c2ccncc2c(C)c2c1[nH]c1ccc(OCCN(C)C)cc12 [NSC 338258, ellipticine, 9-dimethyl amino-ethoxy-] | – | 67.5 | 7.2 | Disruption of mitochondria | – | ≥ 0.4 | 0.2 | instantly permeated the cells and distributed throughout the cytosol | such Velcade-tolerance did not apply |
